The experiment relates to S180 ascites. In words: Screening for antitumor activity against S180 ascites (increase in life span, survivors). Format: in vivo, female CFW Swiss mice. Here is the method:
The various Pt ascorbate analogs were tested for antitumor activity against S180 ascites in female CFW Swiss mice by the following procedure.
CFW mice, averaging 20 g, are immediately inspected and placed in newly prepared cages. On day zero the mice are inoculated with 0.2 ml of a freshly prepared saline suspension (0.15 M NaCl) containing […], or a total of 2 x 10^6 cells. This inoculum is freshly prepared using "transfer" mice which have been injected with tumor cells the previous week. This inoculum is the end product of a series of steps which involve (1) the removal of the cells from the peritoneal cavity of the sacrificed transfer mouse, (2) alternate centrifugation-washing (2-3 times with cold saline) to remove occasional blood and other undesirable components, and finally (3) dilution (1:3) of the packed cell volume with saline (the final centrifugation being carried out at 1,000 rpm for 2 min). A cell count is made on a 2,000--fold dilution of this 1:3 suspension by means of a Coulter Counter. A final dilution to 1 x 10^7 cells/ml is made based on the averaged count. On day 1, solutions of the test compounds are prepared and the mice injected, with each mouse of a set of six being injected with the same test compound at the same dose level. Also, on this day, two types of controls (6 mice/set) are employed: (1) Normal (1 set): 0.5 ml of the solvent medium used for the test compound, and (2) Positive control (1 set): a known anti-tumor agent (cis-[Pt(NH3)2cI2] in saline at 8 mg/kg), used to test the response to the biological system.
The effectiveness of a compound is measured in terms of the increase in life span (% ILS) of the test animals relative to the controls (calculated from the day of tumor inoculation, day zero). In order to standardize the test data and permit intercomparisons to be made, the day of evaluation is arbitrarily taken as that day corresponding to twice the mean life-span (or average day of death) of the normal controls. This sets a practical upper limit of 100% on the ILS attainable. For calculation purposes, survivors on the day of evaluation are considered to have died on that day. The % ILS is formulated as: [formula]
ILS values above 50% represent significant activity; those above 75% represent excellent activity.

The mark [1] stands for this setting: dose 20 mg/kg, administered in HNO3 ascorbic acid.
The mark [2] stands for this setting: dose 40 mg/kg, administered in HNO3 ascorbic acid.
The mark [3] stands for this setting: dose 80 mg/kg, administered in HNO3 ascorbic acid.
Setting [4] is: dose 160 mg/kg, administered in HNO3 ascorbic acid.
[5] abbreviates: dose 320 mg/kg, administered in HNO3 ascorbic acid.
The mark [6] stands for this setting: dose 640 mg/kg, administered in HNO3 ascorbic acid.
[7] abbreviates: dose 10 mg/kg, administered in water.
[8] abbreviates: dose 20 mg/kg, administered in water.
Setting [9] is: dose 40 mg/kg, administered in water.
Where [10] appears, read: dose 80 mg/kg, administered in water.
[11] abbreviates: dose 160 mg/kg, administered in water.
Where [12] appears, read: dose 320 mg/kg, administered in water.
Where [13] appears, read: dose 640 mg/kg, administered in water.
Where [14] appears, read: dose 800 mg/kg, administered in water.
The mark [15] stands for this setting: dose 1280 mg/kg, administered in water.
Setting [16] is: dose 5 mg/kg, administered in water.
Setting [17] is: dose 5 mg/kg, administered in water, injected day 1, 5 mg/kg.
[18] abbreviates: dose 5 mg/kg, administered in HNO3 ascorbic acid.
Setting [19] is: dose 10 mg/kg, administered in HNO3 ascorbic acid.
[20] abbreviates: dose 1920 mg/kg, administered in water.
The mark [21] stands for this setting: positive control of the same experiment, in saline at 8 mg/kg, 8 mg/kg.

“And” between values parts separate entries of the source, which are not always exact repeats. Identical values can stand only once.

In the case of “Pt(trans-R,R-dach)(ascorbate) [Pt(trans-R,R-dach) (ascorbate) (Ex. 12)]”, the “30-Day Survivors” value was 3/6 under setting [1]; 3/6 under setting [2]; 4/6 under setting [3]; 0/6 under setting [4]; 0/6 under setting [5]; 0/6 under setting [6]. For the same compound, the “%ILS” value is listed as 67% under setting [1]; 83% under setting [2]; 82% under setting [3]; -75% under setting [4]; -78% under setting [5]; -94% under setting [6].
Turning to “Pt(cis-dach)(ascorbate)2·2H2O [[Pt(cis-dach)-(ascorbate)2]]”, the “30-Day Survivors” value under setting [7] is listed as 0/6; the “30-Day Survivors” value under setting [8] is recorded as 0/6; the “30-Day Survivors” value under setting [9] is recorded as 0/6; the “30-Day Survivors” value under setting [10] is reported as 0/6; the “30-Day Survivors” value under setting [11] is 5/6; the “30-Day Survivors” value under setting [12] is reported as 1/6. Besides, the “%ILS” value is, setting by setting: under setting [7], 21%; under setting [8], 12%; under setting [9], 29%; under setting [10], 60%; under setting [11], 97%; under setting [12], 68%.
As to “[Pt(R,R-trans-dach)(ascorbate)].3H2O [[Pt(R,R-trans-dach)-(ascorbate)]]”, the “30-Day Survivors” value was 0/6 under setting [7]; 0/6 under setting [8]; 0/6 under setting [9]; 0/6 under setting [10]; 0/6 and 0/5 under setting [11]; 3/6 under setting [12]. Besides, the “30-Day Survivors” value under setting [13] is listed as 5/6, the “30-Day Survivors” value under setting [14] is 5/6 and the “30-Day Survivors” value under setting [15] was 6/6. Further, the “%ILS” value under setting [7] was determined as 9%; the “%ILS” value under setting [8] is listed as 6%; the “%ILS” value under setting [9] is on record as 9%; the “%ILS” value under setting [10] was 15% and 7%; the “%ILS” value under setting [12] is 65% and 55%; the “%ILS” value under setting [13] stood at 100%. Moreover, the “%ILS” value stood at 72% under setting [14] and 100% under setting [15].
For “Cis-[Pt(NH3)2(ascorbate)].2H2O [cis[Pt(NH3)2-(ascorbate)]]”, the “30-Day Survivors” value was 0/6 under setting [7]; 0/6 under setting [8]; 0/6 under setting [9]; 0/6 under setting [10]; 1/6 under setting [11]; 3/6 under setting [12]. The “%ILS” value was -2% under setting [7]; 6% under setting [8]; -6% under setting [9]; -1% under setting [10]; 57% under setting [11]; 79% under setting [12].
Turning to “[Pt(cis-dach)(ascorbate)].3H2O [[Pt(cis-dach)-(ascorbate)] (Isomer VII)]”, the “30-Day Survivors” value under setting [16] is reported as 0/6; the “30-Day Survivors” value under setting [7] is listed as 0/6; the “30-Day Survivors” value under setting [8] is recorded as 0/6; the “30-Day Survivors” value under setting [9] was 0/6; the “30-Day Survivors” value under setting [10] was 1/6 and 2/6; the “30-Day Survivors” value under setting [11] is 5/6 and 3/6. Also, the “30-Day Survivors” value under setting [12] is on record as 0/6. The “%ILS” value is 12% under setting [17]; 20% under setting [7]; 20% under setting [8]; 43% under setting [9]; 71% and 79% under setting [10]; 98% and 69% under setting [11]. The “%ILS” value under setting [12] is recorded as -59%.
Turning to “[Pt(cis-dach)(ascorbate)].3H2O [[Pt(cis-dach)-(ascorbate)] (Isomer VI)]”, the “30-Day Survivors” value under setting [16] is 0/6; the “30-Day Survivors” value under setting [7] is reported as 0/6; the “30-Day Survivors” value under setting [8] is 0/6; the “30-Day Survivors” value under setting [9] is recorded as 0/6; the “30-Day Survivors” value under setting [10] was 6/6 and 0/6; the “30-Day Survivors” value under setting [11] was 4/6 and 3/6. In addition, the “30-Day Survivors” value under setting [12] was 5/6. Further, the “%ILS” value by setting is: under setting [17], 15%; under setting [7], 23%; under setting [8], 26%; under setting [9], 22%; under setting [11], 99% and 77%; under setting [12], 93%.
For “Pt(ethylenediamine)(ascorbate) [listing 1 of 2 here]”, under “after contact with an aqueous acid solution”, the “activity against Sarcoma 180 ascites tumors in comparison with the unacidified complex” value is “enhanced activity”. Moreover, the “30-Day Survivors” value is, setting by setting: under setting [18], 0/6; under setting [19], 0/6; under setting [1], 0/6; under setting [2], 3/6; under setting [3], 3/6; under setting [4], 2/6. In addition, the “%ILS” value runs as follows: under setting [18], 3%; under setting [19], 27%; under setting [1], 45%; under setting [2], 75%; under setting [3], 93%; under setting [4], 70%.
On to “[Pt (cis-dach) (isoascorbate) [[Pt(cis-dach)-(isoascorbate)]]”, for which the “30-Day Survivors” value runs as follows: under setting [7], 0/6; under setting [8], 0/6; under setting [9], 0/6; under setting [10], 0/6; under setting [11], 0/6; under setting [12], 0/6. Also, the “30-Day Survivors” value runs as follows: under setting [13], 2/6; under setting [14], 2/6; under setting [15], 3/6; under setting [20], 0/6. Besides, the “%ILS” value was 9% under setting [7]; 6% under setting [8]; 6% under setting [9]; 17% under setting [10]; 4% and 10% under setting [11]; 12% and 22% under setting [12]. Further, the “%ILS” value was 70% under setting [13], 92% under setting [14], 82% under setting [15] and 54% under setting [20].
On to `N.N.[Cl][Pt][Cl]` [Control, cis-[Pt(NH3)2cI2], reference compound], for which, under setting [21], the “Control 30-Day Survivors” value was 6/6 and 1/6 and 4/6 and 3/6 and 2/6 and 0/6 and 5/6; the “Control %ILS” value was 98% and 67% and 77% and 86% and 79% and 76% and 71% and 94%.
Regarding “Pt(ethylenediamine)(ascorbate) [listing 2 of 2 here]”, the “30-Day Survivors” value runs as follows: under setting [7], 0/6; under setting [8], 0/6; under setting [9], 0/6; under setting [10], 0/6; under setting [11], 0/6; under setting [12], 0/6. The “%ILS” value reads like this: under setting [7], 4%; under setting [8], 6%; under setting [9], 22%; under setting [10], -2%; under setting [11], 10%; under setting [12], 24%.

These data come from patent EP0174114A1, “Platinum complexes of ascorbic acid and ascorbic acid analogs” (priority 1984, dated 1986).
